Data taken from patent publication US7588892B2, “Reagent sets and gene signatures for renal tubule injury” (Entelos, Inc., priority 2004, dated 2009).

System: renal tubules
Assay: 28-day repeat dose study of known nephrotoxicants, kidney histopathology on day 5 and day 28
Format: in vivo, rat
Conditions: for Class (nephrotoxic / non-nephrotoxic training label): male Sprague-Dawley rats, daily dose, route and vehicle of Table 2, late-onset renal tubular injury empirically confirmed after 28 days of dosing, expression profile day 5
Procedure: 28-day repeat dose studies were conducted on known nephrotoxicants. Doses were chosen that would not cause histological or clinical evidence of renal tubular injury after 5 days of dosing, but would cause histological evidence of tubular injury after 28 days of dosing. Animals were assigned to groups such that mean body weights were within 10% of the mean vehicle control group. Test compounds were administered either orally (10 ml of corn oil/kg body weight) or by intra-peritoneal injection (5 ml of saline/kg body weight). Animals were dosed once daily starting on day 0, and necropsied 24 hrs after the last dose following an overnight fast on day 5 (n=5) and day 28 (n=10). An equivalent number of time- and vehicle-matched control rats were treated concurrently.
To derive a signature predictive of renal tubular injury, it is necessary to first define both nephrotoxic and non-nephrotoxic treatments from short-term studies devoid of tissue injury that can be used to model the early transcriptional effects that will be predictive of late-onset toxicity.
Doses were chosen that would not cause histological or clinical evidence of renal tubular injury after 5 days of dosing, but would cause histological evidence of tubular injury after 28 days of dosing.
Male Sprague-Dawley (Crl:CD®(SD)(IGS)BR) rats (Charles River Laboratories, Portage, Mich.), weight matched, 7 to 8 weeks of age, were housed individually in hanging, stainless steel, wire-bottom cages in a temperature (66-77° F.), light (12-hour dark/light cycle) and humidity (30-70%) controlled room. […] Housing and treatment of the animals were in accordance with regulations outlined in the USDA Animal Welfare Act (9 CFR Parts 1, 2 and 3).
All animals were monitored daily for clinical observations approximately 1 hr after dosing. […] Paired organs were weighed together. Body weights were recorded pre-test and daily thereafter for reference database (i.e., DrugMatrix™) studies, and on days 0, 3, 5, 7, 14 and 28 for the sub-chronic studies. Terminal body weights were measured at necropsy and used to calculate relative organ weights and percent body weight gain relative to day 0.
The right kidney was preserved in 10% buffered formalin for tissue fixation and subsequently embedded in paraffin, sectioned and stained with hematoxylin and eosin. Sections (5 μm thick) were examined under light microscope by Board Certified Pathologists for histopathological lesions. The left kidney was snap frozen in liquid nitrogen for subsequent RNA extraction.

[1] = day 28, kidney histopathology, n=10

Row | Compound | evidence of tubular injury (day 28, kidney histopathology) | incidence of interstitial inflammation [1] [rats] | proteinaceous casts, tubular cysts and mineralization, animals affected [1] | Class (nephrotoxic / non-nephrotoxic training label)
1 | O=[N+]([O-])c1cc([As](=O)(O)O)ccc1O [ROXARSONE] | clear evidence of tubular injury | 6 | one | Nephrotoxic
2 | NC[C@H]1O[C@H](O[C@H]2[C@H](O)[C@@H](O[C@H]3O[C@H](CO)[C@@H](O)[C@H](N)[C@H]3O)[C@H](N)C[C@@H]2N)[C@H](N)C[C@@H]1O [TOBRAMYCIN] | – | – | – | Nephrotoxic
3 | GENTAMICIN | – | – | – | Nephrotoxic
